Test results as given in ChEMBL document CHEMBL1141370, “Biologically active triterpenoid saponins from Ardisia japonica” (J Nat Prod, 2007).

What was measured:
Format in all cases: cell-based
A549 = assay: Cytotoxicity against human A549 cell line by MTT assay
HL-60 = assay: Cytotoxicity against human HL60 cell line by MTT assay
[1] = Cytotoxicity against human KATO3 cell line by MTT assay

C[C@@H]1O[C@@H](O[C@H]2[C@H](O[C@H]3CO[C@@H](O[C@H]4CC[C@]5(C)[C@H]6CC[C@]78OC[C@@]9(CCC(C)(C)C[C@H]97)[C@H](O)C[C@@]8(C)[C@]6(C)CC[C@H]5C4(C)C)[C@H](O[C@@H]4O[C@H](CO)[C@@H](O)[C@H](O)[C@H]4O)[C@H]3O)O[C@H](CO)[C@@H](O)[C@@H]2O)[C@H](O)[C@H](O)[C@H]1O
IC50 (A549): 3.7 µM | IC50 (HL-60): 1.9 µM | IC50 [1]: 0.4 µM

C[C@@H]1O[C@@H](O[C@H]2[C@H](O[C@H]3CO[C@@H](O[C@H]4CC[C@]5(C)[C@H]6CC[C@]78OC[C@@]9(CC[C@](C)(C=O)C[C@H]97)[C@H](O)C[C@@]8(C)[C@]6(C)CC[C@H]5C4(C)C)[C@H](O[C@@H]4O[C@H](CO)[C@@H](O)[C@H](O)[C@H]4O)[C@H]3O)O[C@H](CO)[C@@H](O)[C@@H]2O)[C@H](O)[C@H](O)[C@H]1O [ARDISIACRISPIN B]
IC50 (A549): 3.6 µM | IC50 (HL-60): 3.2 µM | IC50 [1]: 1.2 µM

C[C@@H]1O[C@@H](O[C@H]2[C@H](O[C@H]3CO[C@@H](O[C@H]4CC[C@]5(C)[C@H]6CC=C7[C@@H]8C[C@@](C)(CO)CC[C@]8(CO)[C@H](O)C[C@@]7(C)[C@]6(C)CC[C@H]5C4(C)C)[C@H](O[C@@H]4O[C@H](CO)[C@@H](O)[C@H](O)[C@H]4O)[C@H]3O)O[C@H](CO)[C@@H](O)[C@@H]2O)[C@H](O)[C@H](O)[C@H]1O [ARDISIAMAMILLOSEDE C]
IC50 (A549): > 100 µM | IC50 (HL-60): > 100 µM | IC50 [1]: > 100 µM

C[C@@H]1O[C@@H](O[C@H]2[C@H](O[C@H]3CO[C@@H](O[C@H]4CC[C@]5(C)[C@H]6CC[C@]78OC[C@@]9(CC[C@](C)(C(=O)O)C[C@H]97)[C@H](O)C[C@@]8(C)[C@]6(C)CC[C@H]5C4(C)C)[C@H](O[C@@H]4O[C@H](CO)[C@@H](O)[C@H](O)[C@H]4O)[C@H]3O)O[C@H](CO)[C@@H](O)[C@@H]2O)[C@H](O)[C@H](O)[C@H]1O [ARDISIAMAMILLOSIDE F]
IC50 (A549): > 100 µM | IC50 (HL-60): > 100 µM | IC50 [1]: > 100 µM

C[C@@H]1O[C@@H](O[C@H]2[C@H](O[C@H]3CO[C@@H](O[C@H]4CC[C@]5(C)[C@H]6CC[C@]78OC[C@@]9(CC[C@](C)(C=O)C[C@H]97)C(=O)C[C@@]8(C)[C@]6(C)CC[C@H]5C4(C)C)[C@H](O)[C@H]3O)O[C@H](CO)[C@@H](O)[C@@H]2O)[C@H](O)[C@H](O)[C@H]1O [ARDISIAMAMILLOSIDE H]
IC50 (A549): 37.2 µM | IC50 (HL-60): 30.8 µM | IC50 [1]: 21.5 µM

CC1(C)CC[C@]23CO[C@@]4(CC[C@@H]5[C@@]6(C)CC[C@H](O[C@@H]7OC[C@H](O[C@@H]8O[C@H](CO)[C@@H](O)[C@H](O[C@@H]9O[C@H](CO)[C@@H](O)[C@H](O[C@@H]%10O[C@H](CO)[C@@H](O)[C@H](O)[C@H]%10O)[C@H]9O)[C@H]8O[C@@H]8OC[C@@H](O)[C@H](O)[C@H]8O)[C@H](O)[C@H]7O[C@@H]7O[C@H](CO)[C@@H](O)[C@H](O)[C@H]7O)C(C)(C)[C@@H]6CC[C@@]5(C)[C@]4(C)C[C@H]2O)[C@@H]3C1 [ARDISIANOSIDE B]
IC50 (A549): 3.1 µM | IC50 (HL-60): 2.4 µM | IC50 [1]: 0.3 µM

C[C@@H]1O[C@@H](O[C@H]2[C@H](O[C@H]3CO[C@@H](O[C@H]4CC[C@]5(C)[C@H]6CC[C@]78OC[C@@]9(CCC(C)(C)C[C@H]97)[C@H](O)C[C@@]8(C)[C@]6(C)CC[C@H]5C4(C)C)[C@H](O)[C@H]3O)O[C@H](CO)[C@@H](O)[C@@H]2O)[C@H](O)[C@H](O)[C@H]1O [ARDISIANOSIDE C]
IC50 (A549): 3.2 µM | IC50 (HL-60): 2.7 µM | IC50 [1]: 1.3 µM

CC1(C)CC[C@]23CO[C@@]4(CC[C@@H]5[C@@]6(C)CC[C@H](O[C@@H]7OC[C@H](O[C@@H]8O[C@H](CO)[C@@H](O)[C@H](O)[C@H]8O[C@@H]8OC[C@@H](O)[C@H](O)[C@H]8O)[C@H](O)[C@H]7O)C(C)(C)[C@@H]6CC[C@@]5(C)[C@]4(C)C[C@H]2O)[C@@H]3C1 [ARDISIANOSIDE D]
IC50 (A549): 24.2 µM | IC50 (HL-60): 3.5 µM | IC50 [1]: 1.5 µM

CC1(C)[C@@H](O[C@@H]2OC[C@H](O[C@@H]3O[C@H](CO)[C@@H](O)[C@H](O)[C@H]3O)[C@H](O)[C@H]2O[C@@H]2O[C@H](CO)[C@@H](O)[C@H](O)[C@H]2O)CC[C@]2(C)[C@H]3CC[C@]45OC[C@@]6(CC[C@](C)(CO)C[C@H]64)[C@H](O)C[C@@]5(C)[C@]3(C)CC[C@@H]12 [ARDISIANOSIDE E]
IC50 (A549): 3.1 µM | IC50 (HL-60): 3.4 µM | IC50 [1]: 0.4 µM

CC1(C)[C@@H](O[C@@H]2OC[C@H](O[C@@H]3O[C@H](CO)[C@@H](O)[C@H](O[C@@H]4O[C@H](CO)[C@@H](O)[C@H](O)[C@H]4O)[C@H]3O[C@@H]3OC[C@@H](O)[C@H](O)[C@H]3O)[C@H](O)[C@H]2O[C@@H]2O[C@H](CO)[C@@H](O)[C@H](O)[C@H]2O)CC[C@]2(C)[C@H]3CC[C@]45OC[C@@]6(CC[C@](C)(CO)C[C@H]64)[C@H](O)C[C@@]5(C)[C@]3(C)CC[C@@H]12 [ARDISIANOSIDE F]
IC50 (A549): 36.2 µM | IC50 (HL-60): > 100 µM | IC50 [1]: 38.3 µM

C[C@@H]1O[C@@H](O[C@H]2[C@H](O[C@H]3CO[C@@H](O[C@H]4CC[C@]5(C)[C@H]6CC[C@]78OC[C@@]9(CC[C@](C)(O)C[C@H]97)[C@H](O)C[C@@]8(C)[C@]6(C)CC[C@H]5C4(C)C)[C@H](O[C@@H]4O[C@H](CO)[C@@H](O)[C@H](O)[C@H]4O)[C@H]3O)O[C@H](CO)[C@@H](O)[C@@H]2O)[C@H](O)[C@H](O)[C@H]1O [ARDISIANOSIDE G]
IC50 (A549): > 100 µM | IC50 (HL-60): > 100 µM | IC50 [1]: > 100 µM

CC1(C)CC[C@]23C(=O)O[C@@]4(CC[C@@H]5[C@@]6(C)CC[C@H](O[C@@H]7OC[C@H](O[C@@H]8O[C@H](CO)[C@@H](O)[C@H](O[C@@H]9O[C@H](CO)[C@@H](O[C@@H]%10O[C@H](CO)[C@@H](O)[C@H](O)[C@H]%10O)[C@H](O[C@@H]%10O[C@H](CO)[C@@H](O)[C@H](O)[C@H]%10O)[C@H]9O)[C@H]8O[C@@H]8OC[C@@H](O)[C@H](O)[C@H]8O)[C@H](O)[C@H]7O[C@@H]7O[C@H](CO)[C@@H](O)[C@H](O)[C@H]7O)C(C)(C)[C@@H]6CC[C@@]5(C)[C@]4(C)C[C@H]2O)[C@@H]3C1 [ARDISIANOSIDE H]
IC50 (A549): 33.4 µM | IC50 (HL-60): 28.4 µM | IC50 [1]: 8.3 µM

C[C@@H]1O[C@@H](O[C@H]2[C@H](O[C@H]3CO[C@@H](O[C@H]4CC[C@]5(C)[C@H]6CC[C@]78OC(=O)[C@@]9(CC[C@](C)(CO)C[C@H]97)[C@H](O)C[C@@]8(C)[C@]6(C)CC[C@H]5C4(C)C)[C@H](O[C@@H]4O[C@H](CO)[C@@H](O)[C@H](O)[C@H]4O)[C@H]3O)O[C@H](CO)[C@@H](O)[C@@H]2O)[C@H](O)[C@H](O)[C@H]1O [ARDISIANOSIDE I]
IC50 (A549): > 100 µM | IC50 (HL-60): > 100 µM | IC50 [1]: > 100 µM

C[C@@H]1O[C@@H](O[C@H]2[C@H](O[C@H]3CO[C@@H](O[C@H]4CC[C@]5(C)[C@H]6CC[C@]78OC(=O)[C@@]9(CC[C@](C)(C=O)C[C@H]97)[C@H](O)C[C@@]8(C)[C@]6(C)CC[C@H]5C4(C)C)[C@H](O[C@@H]4O[C@H](CO)[C@@H](O)[C@H](O)[C@H]4O)[C@H]3O)O[C@H](CO)[C@@H](O)[C@@H]2O)[C@H](O)[C@H](O)[C@H]1O [ARDISIANOSIDE J]
IC50 (A549): 32.9 µM | IC50 (HL-60): 45.6 µM | IC50 [1]: 33.5 µM
